# Measurements taken from PubChem BioAssay AID1963862 (Molecular Pharmacology Branch, DTP, NCI, 2024).
# pIC50: −log10 of the molar value.
# System: KRAS patient-derived spheroids with HUVEC/MSC, viability
# Experiment: Anticancer human tumor 941728-121-R-J1-PDC patient-derived lung adenocarcinoma cell line growth inhibition [KRAS2]
# Conditions: for pIC50: curve of first compound; for viability, T/C: stronger effect = lower value
# From the text: Multicellular complex tumor spheroid response to RAS pathway inhibitors in combination with a targeted agents in patient-derived cell lines with oncogenic KRAS variants from multiple cancer types
# A high-throughput screen of multi-cell type tumor spheroids was designed to identify active combinations of targeted small molecules and KRAS pathway inhibitors. Complex spheroids include a stromal component modeled by human endothelial cells (HUVEC) and fibroblasts modeled by human mesenchymal stem cells (MSCs). The concentration ranges selected for each drug and investigational agent were based upon clinically achievable concentrations if the clinical Cmax of the agent was known.
# Compounds. The drugs and investigational agents: BI-3406 (NSC825286), BAY-293 (NSC824723), batoprotafib (TNO155; NSC825523), sotorasib (AMG 510; NSC818433), MRTX1257 (NSC819558), elimusertib (BAY 1895344; NSC800525), molibresib (GSK525762; NSC774829), temuterkib (LY3214996; NSC803410), venetoclax (NSC766270), alisertib (NSC759677), olaparib (NSC753686), talazoparib (NSC767125), erdafitinib (NSC781556), ipatasertib (NSC767898), cabozantinib (NSC761068), nintedanib (NSC756659), abemaciclib (NSC768073), docetaxel (NSC628503), trametinib (NSC758246), and sapanisertib (NSC764658) were obtained from the National Cancer Institute (NCI) Developmental Therapeutics Program Chemical Repository. The FDA-approved anticancer drug set is available from the Developmental Therapeutics Program. […] The stock solutions were prepared in dimethyl sulfoxide (DMSO, Sigma-Aldrich, St. Louis, MO, cat. D2650) at 800-fold the tested concentration and stored at -70 degrees C prior to their use. All drugs and investigational agents were tested over a range starting from a high concentration at or near the clinical Cmax and decreasing in half-log increments. If the clinical Cmax for an agent had not been determined, the highest concentration tested was 10 microM.
# Cell Culture. All cells were maintained in an incubator at 37 degrees C and 5% CO2 with 95% humidity. The PDC lines were cultured according to standard operating procedures established by the NCI PDMR (https://pdmr.cancer.gov/sops/default.htm). Briefly, all PDCs were thawed and cultured in Matrigel-coated flasks prepared with a working solution of 1X Ham's F-12 nutrient mix, without supplementation (Invitrogen, Waltham, MA, cat. 11765054), 100 U/mL penicillin-streptomycin (Invitrogen, cat. 15140122), and 2.5% Matrigel (Corning Inc., Corning, NY, cat. 354248) for the first three passages. All PDCs were cultured in complete DMEM/F-12 media containing advanced DMEM/F-12 (Invitrogen, cat. 12634028), 4.9% defined fetal bovine serum, heat inactivated (HyClone Laboratories Inc., Logan, UT, cat. SH30070.03HI), 389 ng/mL hydrocortisone (Sigma-Aldrich, cat. H4001), 9.7 ng/mL human EGF recombinant protein (Invitrogen, cat. PHG0313), 23.4 microg/mL adenine (Sigma-Aldrich, cat. A2786), 97.3 U/mL penicillin-streptomycin (Invitrogen, cat. 15140122), 1.9 mM L-glutamine (Invitrogen, cat. 25030081), and 9.7 microM Y-27632 dihydrochloride (Tocris Bioscience, Bristol, United Kingdom, cat. 1254). The PDCs were cultured in complete DMEM/F12 media without 9.7 microM Y-27632 dihydrochloride for at least two passages prior to the screen. The established cell line HOP-62 was cultured in RPMI 1640 medium, HEPES (Invitrogen, cat. 22400105) with 10% defined fetal bovine serum (HyClone Laboratories Inc., cat. SH30070.03) and 2 mM L-glutamine (Invitrogen, cat. 25030081). The pooled donor HUVEC were cultured in endothelial cell growth medium 2 (PromoCell, Heidelberg, Germany, cat. C-22011) and the hMSC were cultured in mesenchymal stem cell growth medium 2 (PromoCell, cat. C-28009). For all experiments, HUVEC and hMSC were used at passages </=5, while the malignant cell lines were used at passages </=15. […]
# [1] = second compound 0.1 µM, first compound 0.0316 µM
# [2] = second compound 0.1 µM, first compound 0.1 µM
# [3] = second compound 0.1 µM, first compound 0.316 µM
# [4] = second compound 0.1 µM, first compound 1 µM
# [5] = second compound 0.1 µM, first compound 3.16 µM
# [6] = second compound 0.316 µM, first compound 0.0316 µM
# [7] = second compound 0.316 µM, first compound 0.1 µM
# [8] = second compound 0.316 µM, first compound 0.316 µM
# [9] = second compound 0.316 µM, first compound 1 µM
# [10] = second compound 0.316 µM, first compound 3.16 µM
# [11] = second compound 1 µM, first compound 0.0316 µM
# [12] = second compound 1 µM, first compound 0.1 µM
# [13] = second compound 1 µM, first compound 0.316 µM
# [14] = second compound 1 µM, first compound 1 µM
# [15] = second compound 1 µM, first compound 3.16 µM
# [16] = second compound 3.16 µM, first compound 0.0316 µM
# [17] = second compound 3.16 µM, first compound 0.1 µM
# [18] = second compound 3.16 µM, first compound 0.316 µM
# [19] = second compound 3.16 µM, first compound 1 µM
# [20] = second compound 3.16 µM, first compound 3.16 µM
# [21] = second compound 10 µM, first compound 0.0316 µM
# [22] = second compound 10 µM, first compound 0.1 µM
# [23] = second compound 10 µM, first compound 0.316 µM
# [24] = second compound 10 µM, first compound 1 µM
# [25] = second compound 10 µM, first compound 3.16 µM
# [26] = second compound 0.1 µM, first compound 10 µM
# [27] = second compound 0.316 µM, first compound 10 µM
# [28] = second compound 1 µM, first compound 10 µM
# [29] = second compound 3.16 µM, first compound 10 µM
# [30] = second compound 10 µM, first compound 10 µM
# 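Further: spheroids exposed to agents for seven days before readout.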
Compound,pIC50 (second compound 0.1 µM),pIC50 (second compound 0.316 µM),pIC50 (second compound 1 µM),pIC50 (second compound 3.16 µM),pIC50 (second compound 10 µM),"viability, T/C [1] [%]","viability, T/C [2] [%]","viability, T/C [3] [%]","viability, T/C [4] [%]","viability, T/C [5] [%]","viability, T/C [6] [%]","viability, T/C [7] [%]","viability, T/C [8] [%]","viability, T/C [9] [%]","viability, T/C [10] [%]","viability, T/C [11] [%]","viability, T/C [12] [%]","viability, T/C [13] [%]","viability, T/C [14] [%]","viability, T/C [15] [%]",also measured
CC1COCCN1c1cc(-c2ccnn2C)c2ccnc(-c3ccn[nH]3)c2n1 (stereo not given) + C=CC(=O)N1CCN(c2nc(=O)n(-c3c(C)ccnc3C(C)C)c3nc(-c4c(O)cccc4F)c(F)cc23)C(C)C1,> 8.00,> 8.00,> 8.00,> 8.00,> 8.00,20.3,18.5,16.3,13.1,10.7,23.2,19.2,19.1,13.5,10.5,24.6,21,17.5,14.1,14,"viability, T/C (second compound 0.1 µM, first compound 0.01 µM): 23.9%; viability, T/C (second compound 0.316 µM, first compound 0.01 µM): 23.6%; viability, T/C (second compound 1 µM, first compound 0.01 µM): 25.1%; viability, T/C (second compound 3.16 µM, first compound 0.01 µM): 26.2%; viability, T/C [16]: 27.1%; viability, T/C [17]: 24.2%; viability, T/C [18]: 21.2%; viability, T/C [19]: 20.1%; viability, T/C [20]: 16.5%; viability, T/C (second compound 10 µM, first compound 0.01 µM): 33.3%; viability, T/C [21]: 34.8%; viability, T/C [22]: 31.9%; viability, T/C [23]: 28.4%; viability, T/C [24]: 25.4%; viability, T/C [25]: 30.5%"
CC1OCC2(CCN(c3cnc(Sc4ccnc(N)c4Cl)c(N)n3)CC2)C1N (stereo not given) + C=CC(=O)N1CCN(c2nc(=O)n(-c3c(C)ccnc3C(C)C)c3nc(-c4c(O)cccc4F)c(F)cc23)C(C)C1,> 7.50,> 7.50,> 7.50,> 7.50,> 7.50,21.9,20.6,17.3,16.8,16.6,26.5,23,20.1,17.1,15.1,31.1,24.7,20.4,18.9,19.6,"viability, T/C [26]: 12.9%; viability, T/C [27]: 12.4%; viability, T/C [28]: 17.8%; viability, T/C [16]: 29%; viability, T/C [17]: 25.4%; viability, T/C [18]: 25.6%; viability, T/C [19]: 21.5%; viability, T/C [20]: 22.1%; viability, T/C [29]: 18.5%; viability, T/C [21]: 34.1%; viability, T/C [22]: 35%; viability, T/C [23]: 31%; viability, T/C [24]: 26.8%; viability, T/C [25]: 26.7%; viability, T/C [30]: 28.5%"
CCNC(=O)CC1N=C(c2ccc(Cl)cc2)c2cc(OC)ccc2-n2c(C)nnc21 (stereo not given) + C=CC(=O)N1CCN(c2nc(=O)n(-c3c(C)ccnc3C(C)C)c3nc(-c4c(O)cccc4F)c(F)cc23)C(C)C1,> 7.50,> 7.50,> 7.50,> 7.50,> 7.50,25.4,27,21.2,14.3,11.7,27.4,23.8,20.4,14.7,13,28.9,28.7,21.7,16.2,14,"viability, T/C [26]: 10.8%; viability, T/C [27]: 10.3%; viability, T/C [28]: 10.7%; viability, T/C [16]: 30.4%; viability, T/C [17]: 28%; viability, T/C [18]: 22.5%; viability, T/C [19]: 18.3%; viability, T/C [20]: 11.6%; viability, T/C [29]: 8.77%; viability, T/C [21]: 34.1%; viability, T/C [22]: 31.6%; viability, T/C [23]: 23.4%; viability, T/C [24]: 15.1%; viability, T/C [25]: 11%; viability, T/C [30]: 8.28%"
Cn1nccc1Nc1nccc(-c2cc3c(s2)C(C)(C)N(CCN2CCOCC2)C3=O)n1 + C=CC(=O)N1CCN(c2nc(=O)n(-c3c(C)ccnc3C(C)C)c3nc(-c4c(O)cccc4F)c(F)cc23)C(C)C1,> 7.50,> 7.50,> 7.50,> 7.50,> 7.50,23.9,23.4,19,19.6,17.7,25.4,24.4,20.2,18.9,16.8,26.1,27.4,21.1,19.9,17.8,"viability, T/C [26]: 20.7%; viability, T/C [27]: 21.4%; viability, T/C [28]: 29.4%; viability, T/C [16]: 30.6%; viability, T/C [17]: 31.4%; viability, T/C [18]: 24.9%; viability, T/C [19]: 23.6%; viability, T/C [20]: 22.9%; viability, T/C [29]: 32.3%; viability, T/C [21]: 36.4%; viability, T/C [22]: 38%; viability, T/C [23]: 30.7%; viability, T/C [24]: 30%; viability, T/C [25]: 34.2%; viability, T/C [30]: 57.5%"
